Experimental data taken from ChEMBL document CHEMBL1201862, “PubChem BioAssay data set” (2004).
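These data come from cells grown in 96-well plates and exposed to compound for 48 hours at five concentrations. At the GI50, growth is halved.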 Calls of active or inactive are those of the source. No stated cut-off is given here; in the data, active = GI50 up to about 1.1 µM and inactive = higher.

How the values were obtained:
Test in all cases: NCI-60 cell line screen, 48 h
SN12C = system: SN12C
SF-295 = system: SF-295
DU-145 = system: DU-145
HCT-15 = system: HCT-15
NCI-H23 = system: NCI-H23
SF-539 = system: SF-539
M14 = system: M14
U-251 = system: U-251
EKVX = system: EKVX
OVCAR-3 = system: OVCAR-3
RPMI-8226 = system: RPMI-8226
MCF7 = system: MCF7
IGROV-1 = system: IGROV-1
UACC-257 = system: UACC-257
BT-549 = system: BT-549
OVCAR-5 = system: OVCAR-5
Malme-3M = system: Malme-3M
MDA-N = system: MDA-N
NCI-H522 = system: NCI-H522
HCC 2998 = system: HCC 2998
A498 = system: A498
HOP-92 = system: HOP-92
SW-620 = system: SW-620
SNB-19 = system: SNB-19
SK-MEL-5 = system: SK-MEL-5
SR = system: SR
HOP-62 = system: HOP-62
A549 = system: A549
HT-29 = system: HT-29
OVCAR-4 = system: OVCAR-4
T47D = system: T47D
NCI-H226 = system: NCI-H226
CAKI-1 = system: CAKI-1
KM12 = system: KM12
UACC-62 = system: UACC-62
UO-31 = system: UO-31
PC-3 = system: PC-3
SK-MEL-2 = system: SK-MEL-2
HCT-116 = system: HCT-116
SNB-75 = system: SNB-75
CCRF-CEM = system: CCRF-CEM
SK-MEL-28 = system: SK-MEL-28
MOLT-4 = system: MOLT-4
K562 = system: K562
NCI-H460 = system: NCI-H460
MDA-MB-231 = system: MDA-MB-231
786-0 = system: 786-0
RXF 393 = system: RXF 393
OVCAR-8 = system: OVCAR-8
HL-60 = system: HL-60
TK-10 = system: TK-10
COLO 205 = system: COLO 205
MDA-MB-435 = system: MDA-MB-435
SF-268 = system: SF-268
NCI/ADR-RES = system: NCI/ADR-RES
ACHN = system: ACHN
LOX IMVI = system: LOX IMVI
SK-OV-3 = system: SK-OV-3
Hs-578T = system: Hs-578T

Measured: GI50

CC(=O)O[C@H]1CC(C)(C)C(=C=C/C(C)=C/C=C/C=C/C=C(C)/C=C2C=C(/C=C/[C@@]34O[C@]3(C)C[C@@H](O)CC4(C)C)C(=O)O/2)[C@](C)(O)C1
active: TK-10 0.959 µM
11 µM: HCT-15
inactive: SN12C 11.7 µM | SF-295 13.5 µM | DU-145 33.2 µM | NCI-H23 5.14 µM | SF-539 17.8 µM | M14 11.7 µM | U-251 10.7 µM | EKVX > 10 µM | OVCAR-3 10.1 µM | RPMI-8226 4.38 µM | MCF7 3.81 µM | IGROV-1 2.88 µM | UACC-257 12.8 µM | BT-549 2.51 µM | OVCAR-5 19.1 µM | Malme-3M 16.7 µM | MDA-N 12.7 µM | NCI-H522 3.99 µM | HCC 2998 20.7 µM | A498 24.7 µM | HOP-92 12.6 µM | SW-620 19.6 µM | SNB-19 30.6 µM | SK-MEL-5 8.43 µM | SR 6.76 µM | HOP-62 13.3 µM | A549 11.5 µM | HT-29 21.2 µM | OVCAR-4 4.75 µM | T47D 4.27 µM | NCI-H226 1.62 µM | CAKI-1 30.8 µM | KM12 5.4 µM | UACC-62 7.93 µM | UO-31 15.8 µM | PC-3 4.22 µM | SK-MEL-2 3.31 µM | HCT-116 5.33 µM | SNB-75 10 µM | CCRF-CEM 2.94 µM | SK-MEL-28 23.6 µM | MOLT-4 3.85 µM | K562 10 µM | NCI-H460 8.09 µM | MDA-MB-231 31.1 µM | 786-0 16 µM | RXF 393 4.01 µM | OVCAR-8 3.76 µM | HL-60 1.78 µM | COLO 205 19.6 µM | MDA-MB-435 14.8 µM | SF-268 15 µM | NCI/ADR-RES 5.93 µM | ACHN 19.3 µM

NNC1=N/C(=C\c2ccco2)C(=O)N1
inactive: SN12C > 100 µM | SF-295 > 100 µM | NCI-H23 > 100 µM | SF-539 > 100 µM | M14 > 100 µM | U-251 91.8 µM | EKVX > 100 µM | OVCAR-3 > 100 µM | RPMI-8226 57.3 µM | MCF7 > 100 µM | IGROV-1 65.2 µM | UACC-257 > 100 µM | BT-549 40.6 µM | OVCAR-5 > 100 µM | Malme-3M > 100 µM | MDA-N > 100 µM | NCI-H522 50.6 µM | HCC 2998 44.3 µM | A498 > 100 µM | LOX IMVI 60.1 µM | SW-620 > 100 µM | SNB-19 > 100 µM | SK-MEL-5 > 100 µM | SR > 100 µM | HOP-62 > 100 µM | A549 80.9 µM | HT-29 > 100 µM | OVCAR-4 > 100 µM | T47D > 100 µM | NCI-H226 > 100 µM | CAKI-1 > 100 µM | SK-OV-3 > 100 µM | KM12 > 100 µM | UACC-62 33 µM | UO-31 59.4 µM | PC-3 28.8 µM | SK-MEL-2 > 100 µM | HCT-116 > 100 µM | SNB-75 > 100 µM | CCRF-CEM > 10 µM | SK-MEL-28 > 100 µM | MOLT-4 64.7 µM | K562 93.3 µM | MDA-MB-231 > 100 µM | 786-0 > 100 µM | OVCAR-8 > 100 µM | HL-60 > 100 µM | TK-10 > 100 µM | COLO 205 > 100 µM | MDA-MB-435 > 100 µM | NCI/ADR-RES > 100 µM | ACHN 47.5 µM
58.3 µM: HCT-15

Cn1c([C@H](C#N)c2ncccc2[N+](=O)[O-])nc2ccccc21
> 100 µM: HCT-15
inactive: SF-295 28.4 µM | NCI-H23 59 µM | SF-539 31.1 µM | M14 > 100 µM | U-251 34.8 µM | EKVX 56 µM | OVCAR-3 > 100 µM | RPMI-8226 > 100 µM | MCF7 21 µM | UACC-257 > 100 µM | BT-549 > 100 µM | OVCAR-5 > 100 µM | Malme-3M 83.2 µM | MDA-N > 100 µM | NCI-H522 14.4 µM | HCC 2998 > 100 µM | A498 > 100 µM | LOX IMVI > 100 µM | HOP-92 89.1 µM | SW-620 > 100 µM | SNB-19 50 µM | SR > 100 µM | HOP-62 24.5 µM | A549 83.9 µM | HT-29 > 100 µM | NCI-H226 > 100 µM | CAKI-1 > 100 µM | SK-OV-3 32.8 µM | KM12 > 100 µM | UACC-62 > 100 µM | UO-31 > 100 µM | PC-3 86.1 µM | SK-MEL-2 40.6 µM | HCT-116 > 100 µM | SNB-75 28.2 µM | SK-MEL-28 > 100 µM | MOLT-4 > 100 µM | K562 > 100 µM | NCI-H460 76.4 µM | MDA-MB-231 > 100 µM | 786-0 31.8 µM | RXF 393 19.5 µM | Hs-578T 29.9 µM | OVCAR-8 49.3 µM | HL-60 > 100 µM | TK-10 > 100 µM | MDA-MB-435 > 100 µM | SF-268 36 µM | NCI/ADR-RES 78.2 µM | ACHN > 100 µM
active: CCRF-CEM 0.632 µM
